Test results as given in patent US9388148B2, “Acylaminocycloalkyl compounds suitable for treating disorders that respond to modulation of dopamine D3 receptor” (AbbVie Deutschland GmbH & Co. KG, priority 2013, dated 2016).
pKi: −log10 of the molar value.

Key:
[1] = target: T1, human dopamine D3 receptors (Homo sapiens, UniProt P35462); test: Dopamine D3 receptor binding ([125I]-iodosulpride displacement); conditions: membranes of HEK-293 cells with human D3 receptors, 0.1 nM [125I]-iodosulpride
T1 construct: expressed in transfected cells; host or cells: HEK-293
Description: (§1) The substance to be tested was either dissolved in methanol/Chremophor® (BASF SE) or in dimethyl sulfoxide and then diluted with water to the desired concentration.
(§2) Each assay mixture was run in triplicate. • The incubation buffer contained 50 mM tris, 120 mM NaCl, 5 mM KCl, 2 mM CaCl2, 2 mM MgCl2 and 0.1% bovine serum albumin, 10 μM quinolone and 0.1% ascorbic acid (prepared fresh daily). […] Each assay mixture was run in triplicate. • The incubation buffer contained 50 mM tris, 120 mM NaCl, 5 mM KCl, 2 mM CaCl2, 2 mM MgCl2 and 0.1% bovine serum albumin. The buffer was adjusted to pH 7.4 with HCl. c) Measurement and analysis: • After having been incubated at 25° C. for 60 minutes, the assay mixtures were filtered through a Whatman GF/B glass fiber filter under vacuum using a cell col-lecting device. The filters were transferred to scintillation viols using a filter transfer system. After 4 ml of Ultima Gold® (Packard) have been added, the samples were shaken for one hour and the radioactivity was then counted in a Beta-Counter (Packard, Tricarb 2000 or 2200CA).

[2] = target: T2, human dopamine D2L receptors (long isoform) (Homo sapiens, UniProt P14416); test: Dopamine D2L receptor binding ([125I]iodospiperone displacement); conditions: selectivity ratio, human D2L vs human D3 binding
T2 construct: expressed in transfected cells; host or cells: HEK-293
Description: as §1, §2

[3] = Determination of the microsomal half-life / microsomal clearance; assay type: in vitro ADME; conditions: pH 7.4; human liver microsomes, 0.5 μM test substance, 0.25 mg protein/ml, NADPH, 37° C.; read-out: Human mCl (mikrosomal clearance)
Description: The metabolic stability of the compounds of the invention was determined in the following assay.
The test substances were incubated in a concentration of 0.5 μM as follows:
0.5 μM test substance are preincubated together with liver microsomes from different species (from rat, human or other species) (0.25 mg of microsomal protein/ml) in 0.05 M potassium phosphate buffer of pH 7.4 in microtiter plates at 37° C. for 5 min. The reaction is started by adding NADPH (1 mg/mL). After 0, 5, 10, 15, 20 and 30 min, 50 μl aliquots are removed, and the reaction is immediately stopped and cooled with the same volume of acetonitrile. The samples are frozen until analyzed. The remaining concentration of undegraded test substance is determined by MSMS. The half-life (T1/2) is determined from the gradient of the signal of test substance/unit time plot, it being possible to calculate the half-life of the test substance, assuming first order kinetics, from the decrease in the concentration of the compound with time. The microsomal clearance (mC1) is calculated from mC1=1n2/T1/2/(content of microsomal protein in mg/ml)×1000 [ml/min/mg] (modified from references: Di, The Society for Biomoleculur Screening, 2003, 453-462; Obach, DMD, 1999 vol 27. N 11, 1350-1359).

T1 sequence (P35462 whole entry): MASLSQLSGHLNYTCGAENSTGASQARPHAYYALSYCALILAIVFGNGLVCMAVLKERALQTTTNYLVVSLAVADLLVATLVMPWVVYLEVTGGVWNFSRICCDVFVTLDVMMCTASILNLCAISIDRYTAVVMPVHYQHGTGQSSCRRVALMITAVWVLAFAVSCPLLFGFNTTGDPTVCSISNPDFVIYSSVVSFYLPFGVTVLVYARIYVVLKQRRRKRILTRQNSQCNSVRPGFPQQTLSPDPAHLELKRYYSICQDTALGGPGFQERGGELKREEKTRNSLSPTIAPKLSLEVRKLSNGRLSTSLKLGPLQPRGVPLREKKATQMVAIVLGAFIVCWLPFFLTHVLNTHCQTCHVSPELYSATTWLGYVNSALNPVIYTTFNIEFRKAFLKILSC
T2 sequence (P14416 whole entry, canonical isoform): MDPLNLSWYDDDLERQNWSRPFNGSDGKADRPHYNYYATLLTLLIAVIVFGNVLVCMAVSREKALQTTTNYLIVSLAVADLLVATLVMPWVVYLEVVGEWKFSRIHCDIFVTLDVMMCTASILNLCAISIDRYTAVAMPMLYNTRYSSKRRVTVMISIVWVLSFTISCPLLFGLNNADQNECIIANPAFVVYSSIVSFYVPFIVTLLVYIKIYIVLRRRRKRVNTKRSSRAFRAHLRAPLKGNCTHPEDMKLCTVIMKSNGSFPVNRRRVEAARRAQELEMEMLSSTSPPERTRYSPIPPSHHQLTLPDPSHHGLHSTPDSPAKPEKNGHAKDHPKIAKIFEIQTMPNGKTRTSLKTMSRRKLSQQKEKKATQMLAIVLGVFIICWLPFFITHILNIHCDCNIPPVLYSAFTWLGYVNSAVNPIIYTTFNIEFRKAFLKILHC

Row | pKi [1] | D2/D3, Ki (D2L)/Ki (D3) [2] | microsomal CLint at 0.5 μM [3] | Compound
1 | > 8.00 | +++ (+++ >50) | – | CC(C)c1cc(N2CCN(CCC3CC(NC(=O)[C@H]4CC[C@H](O)CC4)C3)C[C@@H]2C)nc(C(C)(C)C)n1 (stereo partly drawn) [Compound 42, N-[3-[2-[(3S)-4-(2-tert-butyl-6-isopropyl-pyrimidin-4-yl)-3-methyl-piperazin-1-yl]ethyl]cyclobutyl]-trans-4-hydroxy-cyclohexanecarboxamide]
2 | > 8.00 | +++ (+++ >50) | – | CC(C)c1cc(N2CCN(CCC3CCC(NC(=O)[C@H]4C[C@H](O)C4)CC3)CC2)nc(C(C)(C)C)n1 (relative stereo) [Compound 50, Trans-N-[4-[2-[4-(2-tert-butyl-6-isopropyl-pyrimidin-4-yl)-piperazin-1-yl]ethyl]cyclohexyl]-3-hydroxy-cyclobutanecarboxamide]
3 | > 8.00 | +++ (+++ >50) | – | CC(C)c1cc(N2CCN(CCC3CC[C@H](NC(=O)[C@H]4CC[C@H](O)CC4)C3)C[C@@H]2C)nc(C(C)(C)C)n1 (stereo partly drawn) [Compound 45, Trans-N-[(1S)-3-[2-[(3S)-4-(2-tert-butyl-6-isopropyl-pyrimidin-4-yl)-3-methyl-piperazin-1-yl]ethyl]cyclopentyl]-4-hydroxy-cyclohexanecarboxamide]
4 | > 8.00 | +++ (+++ >50) | – | C[C@H]1CN(CC[C@H]2CC[C@@H](NC(=O)[C@H]3CC[C@H](O)CC3)CC2)CCN1c1cc(C(F)F)nc(C(C)(C)C)n1 [Compound 44, Cis-N-[4-[2-[(3S)-4-[2-tert-butyl-6-(difluoromethyl)pyrimidin-4-yl]-3-methyl-piperazin-1-yl]ethyl]cyclohexyl]-trans-4-hydroxy-cyclohexanecarboxamide]
5 | > 8.00 | +++ (+++ >50) | – | CC(C)c1cc(N2CCN(CC[C@H]3CC[C@@H](NC(=O)[C@H]4CC[C@H](O)CC4)CC3)CC2)nc(C(C)(C)C)n1 [Compound 43, Cis-N-[4-[2-[4-(2 tert-butyl-6-isopropyl-pyrimidin-4-yl)piperazin-1-yl]ethyl]cyclohexyl]-trans-4-hydroxy-cyclohexanecarboxamide]
6 | > 8.00 | +++ (+++ >50) | – | CO[C@H]1C[C@H](C(=O)NC2CCC(CCN3CCN(c4cc(C(C)C)nc(C(C)(C)C)n4)CC3)CC2)C1 (relative stereo) [Compound 49, Trans-N-[4-[2-[4-(2-tert-butyl-6-isopropyl-pyrimidin-4-yl)-piperazin-1-yl]ethyl]cyclohexyl]-3-methoxy-cyclobutanecarboxamide]
7 | > 8.00 | +++ (+++ >50) | – | CC(C)c1cc(N2CCN(CC[C@H]3CC[C@H](NC(=O)[C@H]4CC[C@H](O)CC4)CC3)C[C@@H]2C)nc(C(C)(C)C)n1 [Compound 41, Trans-N-[4-[2-[(3S)-4-(2-tert-butyl-6-isopropyl-pyrimidin-4-yl)-3-methyl-piperazin-1-yl]ethyl]cyclohexyl]-trans-4-hydroxy-cyclohexanecarboxamide]
8 | – | ++ (++ >20) | 20 to 120 µL/min/mg | CC(C)c1cc(N2CCN(CC[C@H]3CC[C@H](NC(=O)[C@H]4CC[C@H](O)CC4)CC3)CC2)nc(C(C)(C)C)n1 [Compound 32, Trans-N-[trans-4-[2-[4-(2-tert-butyl-6-isopropyl-pyrimidin-4-yl)piperazin-1-yl]ethyl]cyclohexyl]-4-hydroxy-cyclohexanecarboxamide]
9 | – | ++ (++ >20) | < 20 µL/min/mg | CC(C)(C)c1nc(C2CCC2)cc(N2CCN(CC[C@H]3CC[C@H](NC(=O)[C@H]4C[C@H](O)C4)CC3)CC2)n1.O=C(O)C(F)(F)F [Compound 38, trans-N-[trans-4-[2-[4-(2-tert-butyl-6-cyclobutyl-pyrimidin-4-yl)piperazin-1-yl]ethyl]cyclohexyl]-3-hydroxy-cyclobutanecarboxamide; 2,2,2-trifluoroacetic acid]
10 | > 8.00 | +++ (+++ >50) | – | CC(C)c1cc(N2CCN(CCC3CCC(NC(=O)[C@H]4C[C@H](O)C4)CC3)C[C@@H]2C)nc(C(C)(C)C)n1 (stereo partly drawn) [Compound 48, Trans-N-[4-[2-[(3S)-4-(2-tert-butyl-6-isopropyl-pyrimidin-4-yl)-3-methyl-piperazin-1-yl]ethyl]cyclohexyl]-3-hydroxycyclobutanecarboxamide]
11 | – | +++ (+++ >50) | < 20 µL/min/mg | CC(C)(C)c1nc(C2CCC2)cc(N2CCN(CC[C@H]3C[C@H](NC(=O)[C@H]4C[C@H](O)C4)C3)CC2)n1.O=C(O)C(F)(F)F [Compound 39, trans-N-[trans-3-[2-[4-(2-tert-butyl-6-cyclobutyl-pyrimidin-4-yl)piperazin-1-yl]ethyl]cyclobutyl]-3-hydroxy-cyclobutanecarboxamide; 2,2,2-trifluoroacetic acid]

The next lines start with the molecule.

Row | Compound | pKi [1] | D2/D3, Ki (D2L)/Ki (D3) [2] | microsomal CLint at 0.5 μM [3]
12 | COCCc1cc(N2CCN(CC[C@H]3CC[C@H](NC(=O)[C@H]4CC[C@@H](O)CC4)CC3)CC2)nc(C(C)(C)C)n1 [Compound 4, cis-N-[trans-4-[2-[4-[2-tert-butyl-6-(2-methoxyethyl)pyrimidin-4-yl]piperazin-1-yl]ethyl]cyclohexyl]-4-hydroxy-cyclohexanecarboxamide] | – | ++ (++ >20) | > 120 µL/min/mg
13 | COCCc1cc(N2CCN(CC[C@H]3CC[C@H](NC(=O)[C@H]4CC[C@H](OC)CC4)CC3)CC2)nc(C(C)(C)C)n1 [Compound 24, trans-N-[trans-4-[2-[4-[2-tert-butyl-6-(2-methoxyethyl)pyrimidin-4-yl]piperazin-1-yl]ethyl]cyclohexyl]-4-methoxy-cyclohexanecarboxamide] | – | ++ (++ >20) | > 120 µL/min/mg
14 | CC(C)(C)c1nc(N2CCN(CC[C@H]3CC[C@@H](NC(=O)[C@H]4CC[C@H](O)CC4)CC3)CC2)cc(C(F)(F)F)n1 [Compound 23, Trans-N-[cis-4-[2-[4-[2-tert-butyl-6-(trifluoromethyl)pyrimidin-4-yl]piperazin-1-yl]ethyl]cyclohexyl]-4-hydroxy-cyclohexanecarboxamide] | – | +++ (+++ >50) | 20 to 120 µL/min/mg
15 | COCCc1cc(N2CCN(CC[C@H]3CC[C@H](NC(=O)[C@H]4C[C@@H](O)C4)CC3)CC2)nc(C(C)(C)C)n1 [Compound 18, cis-N-[trans-4-[2-[4-[2-tert-butyl-6-(2-methoxyethyl)pyrimidin-4-yl]piperazin-1-yl]ethyl]cyclohexyl]-3-hydroxy-cyclobutanecarboxamide] | – | +++ (+++ >50) | 20 to 120 µL/min/mg
16 | CC(C)(C)c1cc(N2CCN(CC[C@H]3CC[C@@H](NC(=O)[C@H]4CC[C@H](O)CC4)CC3)CC2)nc(C(C)(C)C)n1 [Compound 22, trans-N-[cis-4-[2-[4-(2,6-ditert-butylpyrimidin-4-yl)piperazin-1-yl]ethyl]cyclohexyl]-4-hydroxy-cyclohexanecarboxamide] | – | +++ (+++ >50) | 20 to 120 µL/min/mg
17 | COCCc1cc(N2CCN(CC[C@H]3C[C@@H](NC(=O)[C@H]4CC[C@@H](O)CC4)C3)CC2)nc(C(C)(C)C)n1 [Compound 12, Cis-N-[cis-3-[2-[4-[2-tert-butyl-6-(2-methoxyethyl)pyrimidin-4-yl]piperazin-1-yl]ethyl]cyclobutyl]-4-hydroxy-cyclohexanecarboxamide] | – | +++ (+++ >50) | 20 to 120 µL/min/mg
18 | CC(C)(C)c1nc(N2CCN(CC[C@H]3CC[C@H](NC(=O)[C@H]4CC[C@H](O)CC4)CC3)CC2)cc(C(F)(F)F)n1 [Compound 21, trans-N-[trans-4-[2-[4-[2-tert-butyl-6-(trifluoromethyl)pyrimidin-4-yl]piperazin-1-yl]ethyl]cyclohexyl]-4-hydroxy-cyclohexanecarboxamide] | – | ++ (++ >20) | 20 to 120 µL/min/mg
19 | CC(C)(C)c1nc(C2CCC2)cc(N2CCN(CC[C@H]3CC[C@H](NC(=O)[C@H]4CC[C@@H](O)CC4)CC3)CC2)n1.O=C(O)C(F)(F)F [Compound 14, Cis-N-[trans-4-[2-[4-(2-tert-butyl-6-cyclobutyl-pyrimidin-4-yl)piperazin-1-yl]ethyl]cyclohexyl]-4-hydroxy-cyclohexanecarboxamide; 2,2,2-trifluoroacetic acid] | – | ++ (++ >20) | > 120 µL/min/mg
